Converted amounts (≈) assume the structure as drawn.
Columns and labels:
Candida albicans = assay: Antifungal activity against Candida albicans ATCC 10231 after 24 hrs by CLSI broth microdilution method; type: functional, organism-based; settings: ATCC 10231, 24 h
Candida tropicalis = assay: Antifungal activity against Candida tropicalis ATCC 750 after 24 hrs by CLSI broth microdilution method; type: functional, organism-based; settings: ATCC 750, 24 h
Nakaseomyces glabratus = assay: Antifungal activity against Candida glabrata ATCC 90030 after 24 hrs by CLSI broth microdilution method; type: functional, organism-based; settings: ATCC 90030, 24 h
Candida parapsilosis = assay: Antifungal activity against Candida parapsilosis ATCC 22019 after 24 hrs by CLSI broth microdilution method; type: functional, organism-based; settings: Lodderomyces parapsilosis, ATCC 22019, 24 h
Staphylococcus aureus [1] = assay: Antibacterial activity against Staphylococcus aureus ATCC 6538 after 24 hrs by CLSI broth microdilution method; type: functional, organism-based; settings: ATCC 6538, 24 h
[2] = Cytotoxicity against BHK21 cells assessed as reduction in cell viability after 48 hrs by MTT assay; type: cell-based, Mesocricetus auratus, BHK-21; settings: hamster
[3] = Selectivity index, ratio of CC50 for BHK21 cells to IC50 for Candida albicans ATCC 10231; type: toxicity; settings: hamster, read-out: Ratio CC50/IC50
[4] = Selectivity index, ratio of CC50 for BHK21 cells to IC50 for Candida tropicalis ATCC 750; type: toxicity; settings: hamster, read-out: Ratio CC50/IC50
[5] = Selectivity index, ratio of CC50 for BHK21 cells to IC50 for Candida glabrata ATCC 90030; type: toxicity; settings: hamster, read-out: Ratio CC50/IC50
[6] = Selectivity index, ratio of CC50 for BHK21 cells to IC50 for Candida parapsilosis ATCC 22019; type: toxicity; settings: hamster, read-out: Ratio CC50/IC50
[7] = Selectivity index, ratio of CC50 for BHK21 cells to IC50 for Staphylococcus aureus ATCC 6538; type: toxicity; settings: hamster, read-out: Ratio CC50/IC50
Staphylococcus aureus [8] = assay: Potency index, ratio of piplartine IC50 to test compound IC50 for Staphylococcus aureus ATCC 6538; type: functional
[9] = molecular target: Sodium-dependent serotonin transporter (Homo sapiens, UniProt P31645); assay: Displacement of [3H]Imipramine from human 5-HT transporter expressed in HEK-293 cell membranes after 30 mins
[10] = Antioxidant activity assessed as DPPH radical scavenging activity at 50 ug/ml relative to control; type: functional
[11] = molecular target: High mobility group protein B1 (Homo sapiens) (UniProt P09429); assay: Inhibition of HMGB1 (unknown origin) at 10 uM by ELISA relative to control
Mus musculus [12] = species: Mus musculus; assay: Inhibition of HMGB1 in mouse model relative to control; type: functional
Platelet [13] = assay: Antiplatelet activity in rabbit platelet rich plasma assessed as inhibition of collagen-induced platelet aggregation at 300 uM preincubated for 3 mins followed by collagen addition measured after 10 mins relative to control; type: functional; settings: Oryctolagus cuniculus
Platelet [14] = assay: Antiplatelet activity in rabbit platelet rich plasma assessed as inhibition of arachidonic acid-induced platelet aggregation at 300 uM preincubated for 3 mins followed by arachidonic acid addition measured after 10 mins relative to control; type: functional; settings: Oryctolagus cuniculus
Platelet [15] = assay: Antiplatelet activity in rabbit platelet rich plasma assessed as inhibition of PAF-induced platelet aggregation at 300 uM preincubated for 3 mins followed by PAF addition measured after 10 mins relative to control; type: functional; settings: Oryctolagus cuniculus
Platelet [16] = assay: Antiplatelet activity in rabbit platelet rich plasma assessed as inhibition of collagen-induced platelet aggregation at 150 uM preincubated for 3 mins followed by collagen addition measured after 10 mins relative to control; type: functional; settings: Oryctolagus cuniculus
Platelet [17] = assay: Antiplatelet activity in rabbit platelet rich plasma assessed as inhibition of arachidonic acid-induced platelet aggregation at 150 uM preincubated for 3 mins followed by arachidonic acid addition measured after 10 mins relative to control; type: functional; settings: Oryctolagus cuniculus
Platelet [18] = assay: Antiplatelet activity in rabbit platelet rich plasma assessed as inhibition of PAF-induced platelet aggregation at 150 uM preincubated for 3 mins followed by PAF addition measured after 10 mins relative to control; type: functional; settings: Oryctolagus cuniculus
[19] = Cytotoxicity against […] B16 cells; type: functional, cell-based
[20] = molecular target: T1, Bifunctional epoxide hydrolase 2 (Homo sapiens, UniProt P34913); assay: Competitive inhibition of soluble epoxide hydrolase (unknown origin)
T1 sequence (P34913 whole entry): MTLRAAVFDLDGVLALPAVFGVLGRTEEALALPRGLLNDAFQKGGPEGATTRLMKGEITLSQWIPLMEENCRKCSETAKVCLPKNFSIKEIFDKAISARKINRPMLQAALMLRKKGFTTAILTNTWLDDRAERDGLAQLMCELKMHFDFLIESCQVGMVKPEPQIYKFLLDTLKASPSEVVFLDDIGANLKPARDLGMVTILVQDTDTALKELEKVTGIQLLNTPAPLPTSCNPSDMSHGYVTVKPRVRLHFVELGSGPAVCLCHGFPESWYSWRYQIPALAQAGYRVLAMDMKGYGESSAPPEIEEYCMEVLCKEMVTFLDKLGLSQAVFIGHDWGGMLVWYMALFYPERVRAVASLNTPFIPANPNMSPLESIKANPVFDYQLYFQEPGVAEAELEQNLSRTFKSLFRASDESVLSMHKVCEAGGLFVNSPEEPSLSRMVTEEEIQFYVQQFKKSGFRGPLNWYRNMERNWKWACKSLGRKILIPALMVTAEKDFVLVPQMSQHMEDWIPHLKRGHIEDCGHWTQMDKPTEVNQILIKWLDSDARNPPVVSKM

[21] = molecular target: T2, Bifunctional epoxide hydrolase 2 (Homo sapiens) (UniProt P34913); assay: Competitive inhibition of soluble epoxide hydrolase (unknown origin) at 100 uM relative to control
T2 sequence (whole entry): T1 sequence (P34913 whole entry)

[22] = Growth inhibition of HUVEC; type: cell-based; settings: human, HUVEC cells
[23] = Growth inhibition of HUVEC at 5 uM relative to control; type: cell-based; settings: human, HUVEC cells; read-out: GI
[24] = molecular target: 5-hydroxytryptamine receptor 6 (Homo sapiens, UniProt P50406); assay: Displacement of [3H]LSD from human 5-HT6 receptor expressed in CHO-K1 cell membranes after 60 mins
[25] = molecular target: 5-hydroxytryptamine receptor 7 (Homo sapiens, UniProt P34969); assay: Displacement of [3H]LSD from human 5-HT7 receptor expressed in CHO-K1 cell membranes after 60 mins
Mus musculus [26] = assay: Antinarcotic activity in morphine-dependent C57BL/6 mouse assessed as inhibition of naloxone-induced jumping behavior in mouse at 5 mg/kg , ip after 30 mins relative to control; type: functional; settings: C57BL/6, ip, 0.5 h
Platelet [27] = assay: Antiplatelet activity in rabbit platelet rich plasma assessed as inhibition of ADP-induced platelet aggregation at 30 ug/ml relative to control; type: functional; settings: Oryctolagus cuniculus
Platelet [28] = assay: Antiplatelet activity in rabbit platelet rich plasma assessed as inhibition of PAF-induced platelet aggregation at 50 ug/ml relative to control; type: functional; settings: Oryctolagus cuniculus
[29] = molecular target: Platelet-activating factor receptor (Homo sapiens) (UniProt P25105); assay: Inhibition of PAF receptor (unknown origin) assessed as reduction in receptor to rabbit platelet binding at 20 ug/ml relative to control
Chain of Platelet-activating factor receptor (Homo sapiens) (P25105 whole entry): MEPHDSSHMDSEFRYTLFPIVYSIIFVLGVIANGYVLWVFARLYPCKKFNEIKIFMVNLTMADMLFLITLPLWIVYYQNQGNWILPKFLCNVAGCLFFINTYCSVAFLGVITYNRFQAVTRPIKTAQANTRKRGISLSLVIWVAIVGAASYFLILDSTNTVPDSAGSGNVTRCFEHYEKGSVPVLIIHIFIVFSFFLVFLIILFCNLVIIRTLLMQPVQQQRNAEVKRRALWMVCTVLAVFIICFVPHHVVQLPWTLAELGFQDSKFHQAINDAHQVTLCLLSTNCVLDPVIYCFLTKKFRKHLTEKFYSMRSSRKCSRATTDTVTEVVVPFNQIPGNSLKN

Chain of Sodium-dependent serotonin transporter (P31645 whole entry): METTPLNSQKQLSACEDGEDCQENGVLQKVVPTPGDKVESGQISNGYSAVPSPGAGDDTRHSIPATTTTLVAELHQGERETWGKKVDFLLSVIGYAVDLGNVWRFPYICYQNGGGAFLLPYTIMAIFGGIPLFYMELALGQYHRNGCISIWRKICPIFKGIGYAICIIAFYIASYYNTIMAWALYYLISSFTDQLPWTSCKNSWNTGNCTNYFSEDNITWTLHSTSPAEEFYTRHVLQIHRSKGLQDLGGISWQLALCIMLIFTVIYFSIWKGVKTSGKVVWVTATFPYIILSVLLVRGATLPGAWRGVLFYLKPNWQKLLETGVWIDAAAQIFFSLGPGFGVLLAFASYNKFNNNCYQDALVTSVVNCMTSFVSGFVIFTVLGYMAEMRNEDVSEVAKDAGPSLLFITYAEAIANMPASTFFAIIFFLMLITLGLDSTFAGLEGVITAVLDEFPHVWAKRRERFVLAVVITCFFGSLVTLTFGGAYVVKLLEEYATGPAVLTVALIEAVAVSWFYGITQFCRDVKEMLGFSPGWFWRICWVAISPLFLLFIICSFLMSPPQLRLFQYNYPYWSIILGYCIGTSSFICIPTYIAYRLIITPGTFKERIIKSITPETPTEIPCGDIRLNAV
Chain of High mobility group protein B1 (Homo sapiens) (P09429 whole entry): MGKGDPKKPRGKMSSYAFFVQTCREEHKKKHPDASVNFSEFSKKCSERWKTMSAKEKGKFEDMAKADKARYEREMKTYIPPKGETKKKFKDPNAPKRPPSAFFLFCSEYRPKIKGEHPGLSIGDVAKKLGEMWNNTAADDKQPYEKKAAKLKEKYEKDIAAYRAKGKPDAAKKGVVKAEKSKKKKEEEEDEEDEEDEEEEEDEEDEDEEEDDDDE
Chain of 5-hydroxytryptamine receptor 6 (P50406 whole entry): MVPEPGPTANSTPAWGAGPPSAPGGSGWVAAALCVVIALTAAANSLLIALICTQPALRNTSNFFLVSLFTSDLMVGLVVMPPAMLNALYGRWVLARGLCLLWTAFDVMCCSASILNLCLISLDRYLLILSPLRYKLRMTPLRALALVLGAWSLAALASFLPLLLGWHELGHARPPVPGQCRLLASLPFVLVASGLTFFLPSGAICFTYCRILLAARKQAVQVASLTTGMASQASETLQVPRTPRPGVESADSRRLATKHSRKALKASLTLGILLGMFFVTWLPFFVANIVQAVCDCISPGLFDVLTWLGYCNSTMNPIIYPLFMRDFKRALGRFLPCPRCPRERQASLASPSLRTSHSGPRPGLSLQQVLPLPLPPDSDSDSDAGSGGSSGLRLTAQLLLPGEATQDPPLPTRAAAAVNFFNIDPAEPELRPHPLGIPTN
Chain of 5-hydroxytryptamine receptor 7 (P34969 whole entry): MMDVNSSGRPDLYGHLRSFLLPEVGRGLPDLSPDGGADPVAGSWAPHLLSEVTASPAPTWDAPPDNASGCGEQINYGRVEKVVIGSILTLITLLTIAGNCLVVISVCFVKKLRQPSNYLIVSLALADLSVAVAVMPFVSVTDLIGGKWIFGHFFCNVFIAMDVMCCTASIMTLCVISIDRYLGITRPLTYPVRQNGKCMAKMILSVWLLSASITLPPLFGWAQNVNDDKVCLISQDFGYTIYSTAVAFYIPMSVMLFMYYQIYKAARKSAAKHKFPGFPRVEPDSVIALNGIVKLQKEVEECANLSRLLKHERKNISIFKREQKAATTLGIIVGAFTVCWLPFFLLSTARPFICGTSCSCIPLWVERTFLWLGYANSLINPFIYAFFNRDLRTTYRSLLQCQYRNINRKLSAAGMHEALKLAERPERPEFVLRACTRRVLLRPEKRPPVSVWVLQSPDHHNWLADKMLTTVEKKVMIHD

**Q.** Which IC50 (Candida albicans) does the source give for O=C(/C=C/c1ccccc1)NNC(=O)c1ccccc1 here?
**A.** 376 µM

**Q.** What about the IC50 (Candida tropicalis) of the same compound?
**A.** 376 µM

**Q.** What about the IC50 (Nakaseomyces glabratus) of the same compound?
**A.** 376 µM

**Q.** What about the IC50 (Candida parapsilosis) of the same compound?
**A.** 376 µM

**Q.** And the IC50 (Staphylococcus aureus [1])?
**A.** 85.2 µM

**Q.** What about the CC50 at 48 h [2] of the same compound?
**A.** 232 µM

**Q.** And the selectivity ratio [3]?
**A.** 0.61

**Q.** And the selectivity ratio [4]?
**A.** 0.61

**Q.** And the selectivity ratio [5]?
**A.** 0.61

**Q.** What about the selectivity ratio [6] of the same compound?
**A.** 0.61

**Q.** What about the selectivity ratio [7] of the same compound?
**A.** 2.71

**Q.** What about the “Ratio IC50” value (Staphylococcus aureus [8]) of the same compound?
**A.** 3

**Q.** For COc1cc(/C=C/C(=O)O)cc(OC)c1OC [SINAPIC ACID METHYL ETHER], which IC50 [9] is on record?
**A.** > 10 µM

**Q.** With COc1ccc(/C=C/COC(=O)/C=C/c2cc(OC)c(OC)c(OC)c2)cc1 as the compound, how does the inhibition [10] read?
**A.** 18.6%

**Q.** Which results are given for COc1cc(/C=C/C(=O)Oc2ccc3[nH]c4ccccc4c3c2)cc(OC)c1OC?
**A.** inhibition [11]: 70.2%; inhibition (INH) (Mus musculus [12]): 58.9%

**Q.** Which inhibition at 300 µM (Platelet [13]) does the source give for COc1cc(/C=C/C(=O)N2CC(C)CC(C)C2)cc(OC)c1OC (stereo not drawn) here?
**A.** 98.6%

**Q.** What about the inhibition at 300 µM (Platelet [14]) of the same compound?
**A.** 100%

**Q.** And the inhibition at 300 µM (Platelet [15])?
**A.** 94.8%

**Q.** And the inhibition at 150 µM (Platelet [16])?
**A.** 97.2%

**Q.** And the inhibition at 150 µM (Platelet [17])?
**A.** 100%

**Q.** And the inhibition at 150 µM (Platelet [18])?
**A.** 56.9%

**Q.** With COc1cc2oc(=O)cc(COC(=O)/C=C/c3cc(OC)c(OC)c(OC)c3)c2cc1OC as the compound, how does the IC50 [19] read?
**A.** 6.74 µg/mL (≈ 14.8 µM)

**Q.** For COc1cc(/C=C/C(=O)O[C@H]2[C@H](O)[C@@H](CO)O[C@@]2(CO)O[C@H]2O[C@H](COC(=O)c3ccc(O)cc3)[C@@H](O)[C@H](O)[C@H]2O)cc(OC)c1OC, which IC50 [20] is on record?
**A.** 9.1 µM

**Q.** And the inhibition [21]?
**A.** > 100%

**Q.** Which results are given for COc1cc(/C=C/C(=O)Nc2ccc(NC(=O)[C@@H](O)[C@H](N)CCc3ccccc3)cc2)cc(OC)c1OC?
**A.** GI50 [22]: 0.85 µM; inhibition at 5 µM [23]: > 98%

**Q.** Which results are given for COc1cc(/C=C/C(=O)OC[C@H]2O[C@H](O[C@@]3(CO)O[C@H](CO)[C@@H](O)[C@@H]3OC(=O)/C=C/c3cc(OC)c(OC)c(OC)c3)[C@H](O)[C@@H](O)[C@@H]2O)cc(OC)c1O?
**A.** IC50 [20]: 27.2 µM; inhibition [21]: 97.4%

**Q.** With CCCCCCCCCCNC(=O)/C=C/c1cc(OC)c(OC)c(OC)c1 as the compound, how does the IC50 [24] read?
**A.** 5 µM

**Q.** What about the IC50 [25] of the same compound?
**A.** 5.6 µM

**Q.** What about the IC50 [9] of the same compound?
**A.** 6.7 µM

**Q.** And the inhibition in vivo at 5 mg/kg (Mus musculus [26])?
**A.** 80%

**Q.** Which results are given for COc1cc(/C=C/C(=O)NCCc2ccc(O)cc2)cc(OC)c1OC?
**A.** inhibition at 30 µg/mL (Platelet [27]): 24.4%; inhibition at 50 µg/mL (Platelet [28]): 28.8%; inhibition [29]: 12%

**Q.** For COc1ccc(C(=O)OC[C@H]2O[C@H](O[C@]3(CO)O[C@H](CO)[C@@H](O)[C@@H]3OC(=O)/C=C/c3cc(OC)c(OC)c(OC)c3)[C@H](O)[C@@H](O)[C@@H]2O)cc1, which IC50 [20] is on record?
**A.** 6.4 µM

**Q.** What about the inhibition [21] of the same compound?
**A.** > 100%
